According to publication PMC9377006, “Discovery of Desmuramylpeptide NOD2 Agonists with Single-Digit Nanomolar Potency” (ACS Medicinal Chemistry Letters, 2022):

Experiments:
human NOD2 = target: T1, human NOD2 (Homo sapiens, UniProt Q9HC29); experiment: HEK-Blue NOD2 NF-κB SEAP reporter assay (NOD2 agonistic activity); format: cell-based
T1 construct: host or cells: HEK-Blue NOD2 cells (derived from HEK293)
Protocol: The synthesized desmuramylpeptides were evaluated for their dose-dependent NOD2 activity using the commercially available HEK-Blue NOD2 reporter cell line. This cell line is derived from HEK293 cells by cotransfection of human NOD2 and an NF-κB-inducible secreted embryonic alkaline phosphatase (SEAP). Activation of NOD2 and subsequently of NF-κB leads to the expression and secretion of SEAP, the level of which can be quantified colorimetrically. […]
two passages, 200 µg/mL Zeocin (Invivogen) was added to the medium every other passage to maintain selection pressure. The cells were incubated in a humidified atmosphere at 37 °C and 5% CO 2. […]
Aldrich), and 100 µg/mL streptomycin (Sigma -Aldrich).
The tested compounds were dissolved in DMSO and further di luted in culture medium to the desired final concentrations, such that the final DMSO concentration never exceeded 0.1%. […]
4.6 NOD1/NOD2-NF-kB reporter assay
HEK-Blue NOD2 or NOD1 cells were seeded (25,000 cells/well) in 96 -well plates in 100 µL HEK-Blue detection medium (Invivogen, San Diego, CA, USA) and treated with compounds ( 2 µM for fixed […]
the corresponding vehicle (0.1% DMSO). After 18 h of incubation (37 °C, 5% CO2), secreted embryonic alkaline phosphatase (SEAP) activity was determined spectrophotometrically as absorbance at 630 nm (BioTek Synergy microplate reader; Winooski, VT, USA). EC50 values were calculated using Prism software (version 9; GraphPad Software, CA, USA). The experiments were run in duplicates and repeated as at least three independent biological replicates. […]

PBMCs = experiment: Cytokine release from peripheral blood mononuclear cells; format: cell-based; conditions: human PBMCs, 18 h; NOD2 agonists 1 μM; LPS 10 ng/mL; IFN-γ 200 U/mL
Source text: Encouraged by the potent NOD2 activity of 40, we preliminarily evaluated its immunostimulatory potential in human primary peripheral blood mononuclear cells (PBMCs). Specifically, we first investigated the ability of 40 to induce cytokine production in PBMCs. While activation of NOD2 alone is sufficient to elicit cytokine responses, these responses are usually of low intensity. However, NOD2 agonists can act in synergy with ligands of other innate immune receptors and proinflammatory cytokines to induce considerably stronger responses. We were particularly intrigued by the synergistic interactions between NOD2, TLR4, and IFN-γ. The synergy between NOD2 agonists and TLR4 agonists in terms of cytokine secretion, including IFN-γ, is well-established.[29],[30] Similarly, IFN-γ has previously been reported to augment the MDP-mediated activation and cytokine production by dendritic cells and macrophages.[31],[32]
Figure 2 Synergistic effects of 40 with LPS and IFN-γ on induction of cytokine production from PBMCs. Cytokine concentrations were measured after 18 h of stimulation with NOD2 agonists (1 μM) in the presence or absence of LPS (10 ng/mL) and IFN-γ (200 U/mL) or the corresponding vehicle (0.1% DMSO; NT). Data are expressed as mean ± SEM of three independent experiments. Statistical significance was determined by one-way ANOVA followed by Bonferroni’s multiple-comparisons test; *, p < 0.05, **, p < 0.01, ***, p < 0.001 versus vehicle-treated control; ##, p < 0.01, ###, p < 0.001 versus 40 or LPS alone.
Figure S5. The effect of 40 on the production of cytokines from human PBMCs is NOD2 -dependent. PBMCs were pre-incubated for 1 h in the presence or absence of the NOD2 antagonist SG84 (10 µM), before the addition of 40 (1 µM). Cytokine concentrations in supernatants were measured after 18 h stimulation.
Data are expressed as mean s ± SEM of 3 independent experiments. Statistical significance was determined by one-way ANOVA followed by Bonferroni’s multiple comparisons test; **, p < 0.01, ***, p < 0.001. […]
4.9 Cytokine release from peripheral blood mononuclear cells
Peripheral blood mononuclear cells were seeded ( 500,000 cells/well) in 24-well plates in 500 µL growth medium and treated with MDP (1 µM), 2 (1 µM), or 40 (1 µM), in the presence or absence of LPS (10 ng/mL) or IFN-γ (200 U/mL), or the corresponding vehicle (0.1% DMSO). In some wells, PBMCs were pre-treated for 1 h with the NOD2 antagonist SG84 (10 µM), before the addition of 40 (1 µM). Cell-free supernatants were collected after 18 h of incubation (37 °C, 5% CO2) and stored at -80 °C until tested.
Cytokine production was determined with BD Cytometric Bead Array human inflammatory cytokines kit (BD Bioscience) on an Attune NxT flow cytometer (Thermo Fisher Scientific, Waltham, MA, USA). Standard curves were generated using recombinant cytokines contained in the kit. The data were analyzed using the FlowJo (Tree Star, Inc., Ashland, OR, USA) and Prism (GraphPad, San Diego, CA, USA) software.

K562 cancer cells [1] = experiment: PBMC cytotoxicity against K562 cancer cells; format: cell-based; conditions: 1 μM + LPS 1 μg/mL or IFN-γ 200 U/mL, 18 h; 40:1, 4 h
Protocol: In addition, we also investigated the ability of 40, both alone and in combination with LPS and IFN-γ, to induce direct and nonspecific cytolytic activity of PBMCs against cancer cells. For this purpose, we used a functional cytotoxicity assay based on the coincubation of preactivated PBMCs and fluorescently labeled K562 cancer cells.[33] Among the heterogeneous subpopulations of PBMCs, natural killer (NK) cells and, to a lesser extent, monocytes represent the main effector cell types in this assay. NK cells play an essential role in tumor and viral immunosurveillance, both through direct cytolytic destruction of aberrant cells and by facilitating the recruitment and activation of other immune cells through the secretion of cytokines.[34] In addition to their well-established role in cancer immunotherapy, NK cells thus also provide an attractive target in the development of vaccine adjuvants, particularly when Th1 cellular immune responses are preferred.[35] Other cell populations, however, may contribute to the magnitude of NK cell-mediated responses via cytokine secretion. To account for the contribution of these accessory cells and to more accurately represent in vivo conditions, the entire PBMC population was used instead of isolated NK cells.
Figure 3 2 and 40 synergize with LPS and IFN-γ to induce the cytotoxicity of PBMCs against K562 cancer cells. Following 18 h of stimulation of PBMCs with 2 (1 μM) or 40 (1 μM) in the presence or absence of LPS (1 μg/mL) and IFN-γ (200 U/mL) or the corresponding vehicle (0.1% DMSO; NT), K562 cells were added in a 40:1 effector to target cell ratio. Cytotoxicity was determined after 4 h of coincubation. IL-2 (200 U/mL) was used as the positive control. Data are shown as relative activities to vehicle-treated control (0.1% DMSO) and are the means ± SEMs of duplicates of two independent experiments. Statistical significance was determined by one-way ANOVA followed by Dunnet’s multiple-comparisons test; **, p < 0.01, ***, p < 0.001. […]
4.8 Peripheral blood mononuclear cell cytotoxicity
The PBMC cytotoxicity assays using K562 cells were performed as described previously, with some modifications.2 PBMCs were seeded (400,000 cells/well) in duplicates in 96 -well U-bottom plates and treated with 2 (1 µM) or 40 (1 µM), in the presence or absence of LPS (1 µg/mL) or IFN-γ (200 U/mL), IL-2 (200 U/mL), or the corresponding vehicle (0.1% DMSO) for 18 h. K562 were stained with carboxyfluorescein succinimidyl ester (CFSE, Invitrogen, Carlsbad, CA, USA), washed twice with complete medium, and added (10,000 cells/well) to the pre-treated PBMCs for a final effector cell to target tumor cell ratio of 40:1. After a 4 h coincubation (37 °C, 5% CO2), cells were stained with Sytox Blue dead cell stain (Invitrogen) and analyzed using an Attune NxT flow cytometer (Thermo Fisher Scientific, Waltham, MA, USA) and FlowJo software (Tree Star, Inc., Ashland, OR, USA). Cells that were positive for both CFSE and Sytox Blue were defined as dead K562 cells. PBMCs alone and CFSE-labeled K562 cells alone were also treated with the compounds at the same concentrations and stained with Sytox Blue to exclude any direct cytotoxicity of the compounds towards the PBMCs and cancer cells.
4.9 Cytokine release from peripheral blood mononuclear cells […]

K562 cancer cells [2] = tested on: K562 cancer cells; parameters: method as in PMID 34043358; conditions: cited from earlier work
[3] = HEK-Blue NOD2 cells, 18 h, means ± SEMs of at least three independent experiments, 8 or 16 concentrations (0.1 nM to 20 μM)

T1 sequence (Q9HC29 whole entry): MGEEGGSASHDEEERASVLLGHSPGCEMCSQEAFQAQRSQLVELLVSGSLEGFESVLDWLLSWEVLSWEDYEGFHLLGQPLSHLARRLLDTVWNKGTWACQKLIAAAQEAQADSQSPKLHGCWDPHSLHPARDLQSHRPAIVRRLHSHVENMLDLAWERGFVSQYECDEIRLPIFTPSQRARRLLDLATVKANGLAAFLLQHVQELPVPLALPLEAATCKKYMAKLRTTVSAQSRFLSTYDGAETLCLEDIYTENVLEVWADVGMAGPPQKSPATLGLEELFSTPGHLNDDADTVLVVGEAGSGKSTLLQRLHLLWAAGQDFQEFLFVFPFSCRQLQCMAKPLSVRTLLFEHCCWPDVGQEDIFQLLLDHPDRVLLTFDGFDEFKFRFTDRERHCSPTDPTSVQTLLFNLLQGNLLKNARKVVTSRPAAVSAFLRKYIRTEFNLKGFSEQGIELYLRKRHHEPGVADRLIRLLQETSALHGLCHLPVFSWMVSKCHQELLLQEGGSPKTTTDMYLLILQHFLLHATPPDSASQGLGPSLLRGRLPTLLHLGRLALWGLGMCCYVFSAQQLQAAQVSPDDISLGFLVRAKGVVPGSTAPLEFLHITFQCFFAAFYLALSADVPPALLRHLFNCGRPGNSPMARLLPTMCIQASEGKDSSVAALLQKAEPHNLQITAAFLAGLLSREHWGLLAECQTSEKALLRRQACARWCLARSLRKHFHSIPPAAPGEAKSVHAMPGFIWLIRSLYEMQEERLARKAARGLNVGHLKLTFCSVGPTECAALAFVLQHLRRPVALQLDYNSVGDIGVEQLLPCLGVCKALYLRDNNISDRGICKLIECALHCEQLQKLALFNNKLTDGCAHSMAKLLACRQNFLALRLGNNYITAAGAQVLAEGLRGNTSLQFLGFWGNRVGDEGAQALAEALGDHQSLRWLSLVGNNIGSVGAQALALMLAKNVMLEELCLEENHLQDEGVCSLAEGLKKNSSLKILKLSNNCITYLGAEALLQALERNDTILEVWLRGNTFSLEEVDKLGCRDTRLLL

Question: With `CCOC(=O)CC[C@@H](NC(=O)[C@@H](NC(=O)CNC(=O)/C=C/c1ccc(O)c(OC)c1)C12CC3CC(CC(C3)C1)C2)C(=O)OCC` [Compound 16] as the molecule, how does the EC50 (human NOD2; [3]) read?
Answer: > 10000 nM

Question: Which “production of IL-1β, IL-6, IL-8 and TNF-α, stimulant alone” value (“production of IL-1β” below) (PBMCs) does the source give for “lipopolysaccharide [LPS, reference compound]” here?
Answer: strong increase

Question: For `CCOC(=O)CC[C@@H](NC(=O)[C@H](CCc1ccccc1)NC(=O)CNC(=O)/C=C/c1ccc(O)c(OC)c1)C(=O)OCC` [Compound 17], which EC50 (human NOD2; [3]) is on record?
Answer: 420 ± 41 nM

Question: For `COc1cc(/C=C/C(=O)NCC(=O)N[C@H](C(=O)N[C@H](CCC(=O)OC2CCCC2)C(=O)OC2CCCC2)C(C)C)ccc1O` [Compound 2], which “LPS- and IFN-γ-induced cytotoxic activity of PBMCs against K562, costimulation” value (K562 cancer cells [1]) is on record?
Answer: significantly enhanced

Question: What about the “induction of cytotoxic activity of PBMCs (previous observations)” value (K562 cancer cells [2]) of the same molecule?
Answer: failed to induce

Question: And the “production of IL-1β” value (PBMCs)?
Answer: modest production

Question: Which EC50 (human NOD2; [3]) does the source give for `CCOC(=O)CC[C@@H](NC(=O)[C@@H](NC(=O)CNC(=O)c1cc2cc(Br)ccc2o1)C(C)C)C(=O)OCC` [Compound 32] here?
Answer: 316 ± 30 nM

Question: With `CCOC(=O)CC[C@@H](NC(=O)[C@H](Cc1ccncc1)NC(=O)CNC(=O)/C=C/c1ccc(O)c(OC)c1)C(=O)OCC` [Compound 15] as the molecule, how does the “NOD2 agonistic activity at the highest concentration tested” value (human NOD2; 20 μM, HEK-Blue NOD2 cells) read?
Answer: only minor NOD2 agonistic activity

Question: What about the EC50 (human NOD2; [3]) of the same molecule?
Answer: > 10000 nM

Question: Which EC50 (human NOD2; HEK-Blue NOD2 cells) does the source give for `CCOC(=O)CC[C@@H](NC(=O)[C@@H](NC(=O)CNC(=O)c1cc2ccc(Br)cc2o1)C(C)C)C(=O)OCC` [Compound 31] here?
Answer: 1930 nM

Question: What about the EC50 (human NOD2; [3]) of the same molecule?
Answer: 1930 ± 168 nM

Question: Which EC50 (human NOD2; [3]) does the source give for `CC(=O)NC1C(O)OC(CO)C(O)C1OC(C)C(=O)NC(C)C(=O)NC(CCC(=O)O)C(N)=O` (stereo not drawn) [MDP, muramyl dipeptide, reference compound] here?
Answer: 203 ± 12 nM

Question: And the “production of IL-1β” value (PBMCs)?
Answer: modest production

Question: Which “induction of cytotoxic activity of PBMCs (previous observations)” value (K562 cancer cells [2]) does the source give for `CCOC(=O)CC[C@@H](NC(=O)[C@@H](NC(=O)CNC(=O)/C=C/c1ccc(O)c(OC)c1)C(C)C)C(=O)OCC` [Compound 1] here?
Answer: failed to induce

Question: Which EC50 (human NOD2; HEK-Blue NOD2 cells) does the source give for `CCOC(=O)CC[C@@H](NC(=O)[C@@H](NC(=O)CNC(=O)c1cc2ccccc2o1)C(C)C)C(=O)OCC` [Compound 30] here?
Answer: 4340 nM

Question: And the EC50 (human NOD2; [3])?
Answer: 4340 ± 468 nM

Question: For `CCOC(=O)CC[C@@H](NC(=O)[C@@H](NC(=O)CNC(=O)c1cc2cc([N+](=O)[O-])ccc2o1)C(C)C)C(=O)OCC` [Compound 33], which EC50 (human NOD2; [3]) is on record?
Answer: 760 ± 84 nM

Question: With `CCOC(=O)CC[C@@H](NC(=O)[C@@H](NC(=O)CNC(=O)/C=C/c1ccc2c(c1)OCO2)C(C)C)C(=O)OCC` [Compound 29] as the molecule, how does the EC50 (human NOD2; HEK-Blue NOD2 cells) read?
Answer: 2670 nM

Question: What about the EC50 (human NOD2; [3]) of the same molecule?
Answer: 2670 ± 357 nM

Question: What about the “reduction in potency relative to 1” value (human NOD2; NOD2 EC50 versus compound 1) of the same molecule?
Answer: 30 fold

Question: With `COc1cc(/C=C/C(=O)NCC(=O)N[C@H](C(=O)N[C@H](CCC(=O)OC2CCCC2)C(=O)OC2CCCC2)C(C)C)ccc1OC(=O)CC12CC3CC(CC(C3)C1)C2` [Compound 41] as the molecule, how does the EC50 (human NOD2; [3]) read?
Answer: 44 ± 9 nM

Question: With `CCOC(=O)CC[C@@H](NC(=O)[C@@H](NC(=O)CNC(=O)c1nc(-c2ccccc2)oc1C)C(C)C)C(=O)OCC` [Compound 34] as the molecule, how does the EC50 (human NOD2; HEK-Blue NOD2 cells) read?
Answer: 2620 nM

Question: And the EC50 (human NOD2; [3])?
Answer: 2620 ± 209 nM

B1: interferon-γ (protein, UniProt P01579 24-161, looked up)
Interferon gamma: QDPYVKEAENLKKYFNAGHSDVADNGTLFLGILKNWKEESDRKIMQSQIVSFYFKLFKNFKDDQSIQKSVETIKEDMNVKFFNSNKKKRDDFEKLTNYSVTDLNVQRKAIHELIQVMAELSPAAKTGKRKRSQMLFRG
notes: proinflammatory cytokine used as costimulus
Question: Which “production of IL-1β” value (PBMCs) does the source give for B1 here?
Answer: negligible cytokine secretion
